Test results: US11839215B2, “Uracil compound and harmful arthropod control composition containing same” (Sumitomo Chemical Company, Limited, priority 2018, dated 2023)

Tested on: common cutworms (Spodoptera litura)
Experiment: Test Example 1: spray on cabbage seedling, mortality of common cutworm larvae
Type: in vivo
Conditions: 500 ppm diluted solution sprayed on cabbage seedling 20 mL/seedling; five second instar larvae; 25° C., 5 days
Method: The compound A is made to a formulation according to a similar method to that described in the Formulation Example 5, and thereto is added water containing 0.03 v/v % of shindain (registered trademark) to prepare a diluted solution containing 500 ppm of the test compound.
The diluted solution was sprayed into the cabbage (Brassicae oleracea) seedling (on the developmental stage of the second to third true leaf) that is planted in a container in a ratio of 20 mL/seedling.
Thereafter, the stem and leaf thereof was cut out and then was installed into the container that was covered with the filter paper. Five common cutworms (Spodoptera litura) at the second instar larval stages were released into the container, and the container was allowed to stand at 25° C. for 5 days. […] Mortality (%)={1−Number of the surviving insects/5}×100

Compound	mortality of insects
CCOC(=O)COc1nc(C)cc(C)c1Oc1cc(-n2c(=O)cc(C(F)(F)F)n(C)c2=O)c(F)cc1Cl [Compound A]	100%
CCOC(=O)COc1ncccc1Oc1cc(-n2c(=O)cc(C(F)(F)F)n(C)c2=O)c(F)cc1Cl [Compound B]	0%
